Laboratory results: ChEMBL document CHEMBL1157045, “Study of a cyclopamine glucuronide prodrug for the selective chemotherapy of glioblastoma” (Eur J Med Chem, 2010)
Calls of active or inactive are those of the source. The calls are words filed in the database; no cut-off is given here.

Key:
[1] = system: U-87MG ATCC; test: Cytotoxicity against human U87 cells assessed as viability at 200 uM after 5 days by MTS assay; format: functional, cell-based
[2] = Cytotoxicity against human U87 cells assessed as viability in presence of beta glucuronidase; format: functional, cell-based, U-87MG ATCC; conditions: U-87 MG

Compound: CC1=C2C[C@H]3[C@@H](CC=C4C[C@@H](O)CC[C@@]43C)[C@@H]2CC[C@]12O[C@@H]1C[C@H](C)CN(C(=O)OCc3ccc(O[C@@H]4O[C@H](C(=O)O)[C@@H](O)[C@H](O)[C@H]4O)c([N+](=O)[O-])c3)[C@H]1[C@H]2C
- Activity [1]: inactive
- IC50 [2]: 21 µM

Compound: CC1=C2C[C@H]3[C@@H](CC=C4C[C@@H](O)CC[C@@]43C)[C@@H]2CC[C@]12O[C@@H]1C[C@H](C)CN[C@H]1[C@H]2C [CYCLOPAMINE]
- IC50 [2]: 15.5 µM
